The target in one assay is T1, α1B adrenergic receptor (Homo sapiens, UniProt P35368).
T1 sequence (P35368 1-520): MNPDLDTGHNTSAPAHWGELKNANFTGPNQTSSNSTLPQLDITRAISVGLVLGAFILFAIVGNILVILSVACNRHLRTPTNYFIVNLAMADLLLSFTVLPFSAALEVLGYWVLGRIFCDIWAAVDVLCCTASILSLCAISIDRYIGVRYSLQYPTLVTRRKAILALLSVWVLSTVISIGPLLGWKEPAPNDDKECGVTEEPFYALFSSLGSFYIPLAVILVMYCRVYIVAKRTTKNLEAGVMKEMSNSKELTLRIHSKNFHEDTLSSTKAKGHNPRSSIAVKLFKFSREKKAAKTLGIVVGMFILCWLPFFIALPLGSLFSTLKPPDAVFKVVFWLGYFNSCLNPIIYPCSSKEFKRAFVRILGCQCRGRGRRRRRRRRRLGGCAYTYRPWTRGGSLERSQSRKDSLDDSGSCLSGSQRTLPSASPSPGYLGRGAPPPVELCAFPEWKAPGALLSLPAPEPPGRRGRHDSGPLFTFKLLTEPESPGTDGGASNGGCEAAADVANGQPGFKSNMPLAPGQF
In words: PDSP radioligand binding, α1B. The note with it: read-out: % inhibition at 10 µM; single concentration 10 µM.

In a further assay the target is T2, σ2 receptor (Rattus norvegicus, UniProt Q5U3Y7).
T2 sequence (Q5U3Y7 1-176): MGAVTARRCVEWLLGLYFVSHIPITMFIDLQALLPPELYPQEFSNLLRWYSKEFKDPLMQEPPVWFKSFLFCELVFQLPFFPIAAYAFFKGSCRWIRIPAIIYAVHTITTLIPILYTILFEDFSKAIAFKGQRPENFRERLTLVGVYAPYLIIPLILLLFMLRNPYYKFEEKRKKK
In words: PDSP radioligand binding, σ2. The note with it: read-out: % inhibition at 10 µM; single concentration 10 µM.

The target of the next assay is κ opioid receptor (Homo sapiens, UniProt P41145). As to the kind of experiment: PDSP radioligand binding, κ opioid. The note with it: read-out: % inhibition at 10 µM.
The target in another assay is µ opioid receptor (Homo sapiens, UniProt P35372). In words: PDSP radioligand binding, µ opioid. Particulars: read-out: % inhibition at 10 µM; single concentration 10 µM.
In another assay the target is T3, D4 dopaminergic receptor (Homo sapiens, UniProt P21917).
T3 sequence (P21917 1-419): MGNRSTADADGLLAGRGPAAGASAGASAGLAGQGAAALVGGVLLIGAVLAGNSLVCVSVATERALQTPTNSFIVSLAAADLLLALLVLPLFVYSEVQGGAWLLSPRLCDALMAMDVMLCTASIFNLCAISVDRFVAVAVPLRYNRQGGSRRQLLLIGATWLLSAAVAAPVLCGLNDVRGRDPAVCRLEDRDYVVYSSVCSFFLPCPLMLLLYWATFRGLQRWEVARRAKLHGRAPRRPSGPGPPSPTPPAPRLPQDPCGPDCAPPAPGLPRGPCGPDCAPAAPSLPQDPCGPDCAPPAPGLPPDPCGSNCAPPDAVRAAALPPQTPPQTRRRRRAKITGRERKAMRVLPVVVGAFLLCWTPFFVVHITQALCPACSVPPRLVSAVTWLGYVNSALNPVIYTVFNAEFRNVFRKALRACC
As to the kind of experiment: PDSP radioligand binding, D4. Particulars: read-out: % inhibition at 10 µM; single concentration 10 µM.

Assay [1] addresses T4, M5 muscarinic acetylcholine receptor (Homo sapiens, UniProt P08912).
T4 sequence (P08912 1-532): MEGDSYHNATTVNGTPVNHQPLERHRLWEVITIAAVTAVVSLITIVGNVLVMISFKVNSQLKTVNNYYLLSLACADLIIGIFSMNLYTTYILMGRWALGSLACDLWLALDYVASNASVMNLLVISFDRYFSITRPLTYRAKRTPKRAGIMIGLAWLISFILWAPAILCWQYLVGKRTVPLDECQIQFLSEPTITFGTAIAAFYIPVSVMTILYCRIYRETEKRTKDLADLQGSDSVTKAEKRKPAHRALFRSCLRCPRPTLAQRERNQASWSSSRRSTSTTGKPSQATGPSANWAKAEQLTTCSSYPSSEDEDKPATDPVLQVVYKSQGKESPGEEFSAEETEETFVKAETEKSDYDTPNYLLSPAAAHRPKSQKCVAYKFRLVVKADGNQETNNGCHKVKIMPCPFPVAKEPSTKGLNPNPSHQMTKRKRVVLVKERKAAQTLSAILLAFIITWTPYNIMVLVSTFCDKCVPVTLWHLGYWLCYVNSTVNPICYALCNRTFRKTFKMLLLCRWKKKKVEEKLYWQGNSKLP
As to the kind of experiment: PDSP radioligand binding, M5. Particulars: read-out: % inhibition at 10 µM; single concentration 10 µM.

The target in another assay is D3 dopaminergic receptor (Homo sapiens, UniProt P35462). As to the kind of experiment: PDSP radioligand binding, D3. Particulars: read-out: % inhibition at 10 µM; single concentration 10 µM.
A further assay has as its target β3 adrenergic receptor (Homo sapiens, UniProt P13945). In words: PDSP radioligand binding, β3. Particulars: read-out: % inhibition at 10 µM; single concentration 10 µM.
For assay [2], the target named is H4 histaminergic receptor (Homo sapiens, UniProt Q9H3N8). In words: PDSP radioligand binding, H4. The note with it: read-out: % inhibition at 10 µM; single concentration 10 µM.
In a further assay the target is D1 dopaminergic receptor (Homo sapiens, UniProt P21728). In words: PDSP radioligand binding, D1. The note with it: read-out: % inhibition at 10 µM; single concentration 10 µM.
The target of assay [3] is M3 muscarinic acetylcholine receptor (Homo sapiens, UniProt P20309). In words: PDSP radioligand binding, M3. Particulars: read-out: % inhibition at 10 µM; single concentration 10 µM.
The target in another assay is D5 dopaminergic receptor (Homo sapiens, UniProt P21918). In words: PDSP radioligand binding, D5. The note with it: read-out: % inhibition at 10 µM; single concentration 10 µM.
The target in the next assay is T5, 5HT3 ion channels (Homo sapiens, UniProt P46098).
T5 sequence (P46098 24-478): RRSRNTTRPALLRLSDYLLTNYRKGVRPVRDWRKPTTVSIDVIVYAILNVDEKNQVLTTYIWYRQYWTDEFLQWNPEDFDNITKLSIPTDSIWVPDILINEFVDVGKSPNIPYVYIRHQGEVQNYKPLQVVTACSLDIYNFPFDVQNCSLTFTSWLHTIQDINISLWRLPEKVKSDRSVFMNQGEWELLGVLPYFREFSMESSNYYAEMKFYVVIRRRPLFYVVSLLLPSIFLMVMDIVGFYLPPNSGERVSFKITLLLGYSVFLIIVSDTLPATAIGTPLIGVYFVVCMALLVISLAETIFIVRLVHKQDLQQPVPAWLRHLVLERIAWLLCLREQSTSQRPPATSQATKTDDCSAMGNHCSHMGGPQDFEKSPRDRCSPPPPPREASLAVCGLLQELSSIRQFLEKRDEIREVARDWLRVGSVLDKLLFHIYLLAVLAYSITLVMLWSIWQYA
In words: PDSP radioligand binding, 5HT3 ion channel. The note with it: read-out: % inhibition at 10 µM; single concentration 10 µM.

SMILES strings stand for the structures. Like-named read-outs stand apart in the source and are kept apart here.

Sequence of D3 dopaminergic receptor (P35462 whole entry): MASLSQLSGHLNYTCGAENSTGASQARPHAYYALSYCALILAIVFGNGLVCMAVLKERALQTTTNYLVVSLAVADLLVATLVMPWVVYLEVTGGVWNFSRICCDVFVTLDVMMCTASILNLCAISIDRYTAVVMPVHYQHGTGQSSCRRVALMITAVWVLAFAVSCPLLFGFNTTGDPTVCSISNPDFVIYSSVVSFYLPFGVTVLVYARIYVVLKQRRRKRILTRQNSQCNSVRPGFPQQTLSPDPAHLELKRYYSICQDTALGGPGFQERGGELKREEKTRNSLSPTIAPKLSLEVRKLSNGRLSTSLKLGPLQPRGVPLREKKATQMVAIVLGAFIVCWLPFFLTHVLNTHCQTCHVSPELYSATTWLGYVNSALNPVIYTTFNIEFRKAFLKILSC
Sequence of µ opioid receptor (P35372 whole entry): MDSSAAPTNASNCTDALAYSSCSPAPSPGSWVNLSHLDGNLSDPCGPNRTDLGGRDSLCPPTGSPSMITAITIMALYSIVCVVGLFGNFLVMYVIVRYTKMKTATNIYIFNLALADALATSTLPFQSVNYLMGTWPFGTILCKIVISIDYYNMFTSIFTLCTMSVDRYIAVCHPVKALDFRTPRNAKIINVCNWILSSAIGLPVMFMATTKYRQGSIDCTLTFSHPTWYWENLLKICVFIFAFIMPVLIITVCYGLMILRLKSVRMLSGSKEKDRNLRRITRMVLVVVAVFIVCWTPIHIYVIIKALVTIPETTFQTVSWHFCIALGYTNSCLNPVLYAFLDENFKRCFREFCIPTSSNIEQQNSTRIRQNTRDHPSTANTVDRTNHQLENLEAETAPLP
Sequence of D5 dopaminergic receptor (P21918 whole entry): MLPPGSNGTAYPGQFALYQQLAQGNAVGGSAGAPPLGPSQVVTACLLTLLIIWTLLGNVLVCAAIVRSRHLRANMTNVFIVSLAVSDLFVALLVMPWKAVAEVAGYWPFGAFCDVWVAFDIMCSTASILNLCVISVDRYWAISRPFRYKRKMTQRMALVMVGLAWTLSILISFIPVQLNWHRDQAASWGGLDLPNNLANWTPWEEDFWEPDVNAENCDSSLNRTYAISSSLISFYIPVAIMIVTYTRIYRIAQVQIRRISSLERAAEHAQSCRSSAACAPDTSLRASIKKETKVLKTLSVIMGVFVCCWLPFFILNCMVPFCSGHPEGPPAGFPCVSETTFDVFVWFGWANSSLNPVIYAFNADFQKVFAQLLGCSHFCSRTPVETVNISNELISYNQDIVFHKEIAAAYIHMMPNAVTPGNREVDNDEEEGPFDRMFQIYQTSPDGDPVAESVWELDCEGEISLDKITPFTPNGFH
Sequence of κ opioid receptor (P41145 whole entry): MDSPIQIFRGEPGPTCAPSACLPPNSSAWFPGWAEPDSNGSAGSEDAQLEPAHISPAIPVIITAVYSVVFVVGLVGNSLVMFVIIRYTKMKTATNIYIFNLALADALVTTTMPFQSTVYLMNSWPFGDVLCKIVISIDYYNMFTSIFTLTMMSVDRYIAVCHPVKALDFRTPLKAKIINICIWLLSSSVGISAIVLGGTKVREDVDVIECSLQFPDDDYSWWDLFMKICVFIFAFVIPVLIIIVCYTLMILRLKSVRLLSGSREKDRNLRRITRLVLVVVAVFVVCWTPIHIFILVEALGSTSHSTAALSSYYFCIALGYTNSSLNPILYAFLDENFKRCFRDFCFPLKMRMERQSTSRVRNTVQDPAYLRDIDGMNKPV
Sequence of H4 histaminergic receptor (Q9H3N8 whole entry): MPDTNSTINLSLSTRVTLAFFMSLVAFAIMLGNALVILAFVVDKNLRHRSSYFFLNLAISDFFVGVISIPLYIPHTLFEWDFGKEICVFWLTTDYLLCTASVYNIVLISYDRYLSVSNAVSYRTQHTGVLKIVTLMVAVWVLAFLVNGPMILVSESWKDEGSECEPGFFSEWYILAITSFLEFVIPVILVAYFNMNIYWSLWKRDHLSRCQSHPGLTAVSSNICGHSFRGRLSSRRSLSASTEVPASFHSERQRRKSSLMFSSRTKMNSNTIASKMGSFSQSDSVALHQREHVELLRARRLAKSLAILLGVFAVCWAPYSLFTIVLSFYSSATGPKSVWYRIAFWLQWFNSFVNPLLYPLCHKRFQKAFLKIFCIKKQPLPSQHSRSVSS
Sequence of M3 muscarinic acetylcholine receptor (P20309 whole entry): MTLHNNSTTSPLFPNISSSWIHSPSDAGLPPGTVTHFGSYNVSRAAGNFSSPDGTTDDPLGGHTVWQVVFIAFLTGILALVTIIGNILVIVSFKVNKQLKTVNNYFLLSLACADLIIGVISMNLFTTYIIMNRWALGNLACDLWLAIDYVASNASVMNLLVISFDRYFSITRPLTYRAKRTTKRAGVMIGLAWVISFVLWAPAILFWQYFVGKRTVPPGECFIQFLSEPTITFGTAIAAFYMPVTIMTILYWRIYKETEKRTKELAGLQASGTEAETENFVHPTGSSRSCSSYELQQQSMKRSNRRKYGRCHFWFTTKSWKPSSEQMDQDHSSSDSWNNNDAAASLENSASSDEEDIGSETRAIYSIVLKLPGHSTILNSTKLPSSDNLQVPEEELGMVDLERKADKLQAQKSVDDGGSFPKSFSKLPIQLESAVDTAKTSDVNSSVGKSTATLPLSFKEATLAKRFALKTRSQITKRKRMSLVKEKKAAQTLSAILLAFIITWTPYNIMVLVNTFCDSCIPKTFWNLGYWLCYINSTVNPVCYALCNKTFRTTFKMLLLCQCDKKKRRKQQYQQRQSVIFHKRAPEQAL
Sequence of D1 dopaminergic receptor (P21728 whole entry): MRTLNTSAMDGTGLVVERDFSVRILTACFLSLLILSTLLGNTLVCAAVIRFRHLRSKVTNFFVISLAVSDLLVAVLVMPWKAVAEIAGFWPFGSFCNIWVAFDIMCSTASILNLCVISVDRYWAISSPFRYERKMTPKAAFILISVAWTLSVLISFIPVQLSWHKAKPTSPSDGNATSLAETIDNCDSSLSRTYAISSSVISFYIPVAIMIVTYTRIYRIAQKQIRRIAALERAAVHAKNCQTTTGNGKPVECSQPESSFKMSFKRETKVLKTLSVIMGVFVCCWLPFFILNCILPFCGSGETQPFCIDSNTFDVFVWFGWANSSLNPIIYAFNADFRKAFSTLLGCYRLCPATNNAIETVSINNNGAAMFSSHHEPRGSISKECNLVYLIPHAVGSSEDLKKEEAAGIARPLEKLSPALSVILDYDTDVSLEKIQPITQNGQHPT
Sequence of β3 adrenergic receptor (P13945 whole entry): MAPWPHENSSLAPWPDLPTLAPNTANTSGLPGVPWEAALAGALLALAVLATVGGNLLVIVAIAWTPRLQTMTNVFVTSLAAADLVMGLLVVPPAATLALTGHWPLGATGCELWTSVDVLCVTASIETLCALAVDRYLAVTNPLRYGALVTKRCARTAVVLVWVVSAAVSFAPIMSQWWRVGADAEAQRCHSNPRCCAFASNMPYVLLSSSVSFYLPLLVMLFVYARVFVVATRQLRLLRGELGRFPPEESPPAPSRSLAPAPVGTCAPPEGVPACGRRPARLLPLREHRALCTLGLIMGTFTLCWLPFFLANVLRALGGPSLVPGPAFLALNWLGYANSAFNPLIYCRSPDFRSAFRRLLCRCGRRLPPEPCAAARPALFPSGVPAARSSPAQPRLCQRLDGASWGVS

For the compound `Clc1cccc(CNc2nc(Cl)nc3[nH]cnc23)c1` [Compound 9], the inhibition at 10 µM (on α1B adrenergic receptor; at σ2 receptor; at κ opioid receptor (single concentration 10 µM); on µ opioid receptor; on D4 dopaminergic receptor; in assay [1]) was 0% throughout. The inhibition at 10 µM at D3 dopaminergic receptor turned out to be 6%; on β3 adrenergic receptor it was 0%; in assay [2], 5%; on D1 dopaminergic receptor it was 0%; in assay [3], 0%; at D5 dopaminergic receptor, 0%. Also, the inhibition at 10 µM on 5HT3 ion channels came out at 28%.
For `O[C@@H]1[C@H](O)[C@@H]2C[C@@H]2[C@H]1n1cnc2c(NC(C3CC3)C3CC3)nc(Cl)nc21` [Compound 10], the inhibition at 10 µM at α1B adrenergic receptor was 8%; on σ2 receptor, 0%; on κ opioid receptor, 0%; at µ opioid receptor, 0%; on D4 dopaminergic receptor it was 0%; in [1], 0%. Also, the inhibition at 10 µM on D3 dopaminergic receptor came out at 8%; on β3 adrenergic receptor, 0%; in assay [2], 6%; at D1 dopaminergic receptor, 0%; in assay [3], 0%; on D5 dopaminergic receptor it was 0%. In addition, the inhibition at 10 µM at 5HT3 ion channels stood at 3%.

The record behind these values is PMC4032265 (PLoS ONE, 2014).
